The test system of one assay is Hh pathway. Nature of the assay: alkaline phosphatase-based assay of Hh pathway inactivation. It counts as cell-based. The following applies: alkaline phosphatase-based assay described in WO2009074300. Here is the method: The level of inactivation of the Hh pathway resulting from this binding was determined using the alkaline phosphatase-based assay described in WO2009074300, resulting in an IC50 value below 30 nM.

In a further assay the target is Smo receptor (Homo sapiens, UniProt Q99835). Nature of the assay: competitive binding assay displacing fluorescently-labeled Bodipy-Cyclopamine. The following applies: displacement of Bodipy-Cyclopamine; assay described in WO2009074300; read-out: Ki, binding affinity with the Smo receptor.
Sequence of Smo receptor (Q99835 28-787): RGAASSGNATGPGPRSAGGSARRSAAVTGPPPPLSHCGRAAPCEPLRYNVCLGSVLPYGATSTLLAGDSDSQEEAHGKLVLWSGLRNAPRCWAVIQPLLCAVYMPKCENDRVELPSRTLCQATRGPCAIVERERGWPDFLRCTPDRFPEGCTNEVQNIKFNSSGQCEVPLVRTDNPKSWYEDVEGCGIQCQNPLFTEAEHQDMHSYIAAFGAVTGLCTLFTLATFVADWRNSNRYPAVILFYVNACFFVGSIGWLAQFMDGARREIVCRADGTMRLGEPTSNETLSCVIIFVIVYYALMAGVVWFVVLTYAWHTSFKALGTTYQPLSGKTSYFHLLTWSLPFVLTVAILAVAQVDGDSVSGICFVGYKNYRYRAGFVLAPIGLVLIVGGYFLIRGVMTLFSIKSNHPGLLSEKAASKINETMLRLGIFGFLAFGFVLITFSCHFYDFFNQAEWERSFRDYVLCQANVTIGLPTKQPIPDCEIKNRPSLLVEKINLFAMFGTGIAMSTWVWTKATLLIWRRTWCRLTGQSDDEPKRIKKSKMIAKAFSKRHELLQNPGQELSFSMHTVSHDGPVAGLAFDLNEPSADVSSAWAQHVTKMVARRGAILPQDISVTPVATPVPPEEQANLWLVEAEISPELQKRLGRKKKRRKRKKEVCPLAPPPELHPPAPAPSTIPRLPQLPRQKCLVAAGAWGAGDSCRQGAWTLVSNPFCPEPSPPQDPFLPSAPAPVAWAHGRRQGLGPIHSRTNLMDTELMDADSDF

As for `Cc1ccc(-c2cc(N3CCC(C(=O)N4CCN(C)CC4)CC3)ccc2Cl)nc1` [Compound C, {1-[4-Chloro-3-(5-methyl-pyridin-2-yl)-phenyl]-piperidin-4-yl}-(4-methyl-piperazin-1-yl)-methanone], the IC50 in the assay with Hh pathway was less than 30 nM. Moreover, on Smo receptor, the Ki was less than 100 nM.

As usually defined, the IC50 is the concentration at which inhibition is half-maximal. A low value points to higher potency. The term Ki denotes a measure of affinity in units of concentration, obtained from inhibition or displacement.

(Values after patent US20150210669A1, “COMPOUND FOR THE TREATMENT OF TUMOURS AND TUMOUR METASTASES” (SIENA BIOTECH S.P.A., priority 2010, published 2015).)
